Test results as given in patent publication US10787413B2, “Derivatives of curcuminoids and use thereof as an anticancer agent” (CHINA MEDICAL UNIVERSITY, priority 2016, dated 2020).
Where two headings read alike, the source gives them in different places.

Experiments:
MDA-MB-231 Xenograft = assay: In vivo antitumor activity, MDA-MB-231 Xenograft nude mice model; conditions: treated vs untreated control group during antitumor evaluation
Method: Female nu/nu mice (5 weeks old) were from National Laboratory Animal Center, Taipei, Taiwan. Mice were maintained under the procedures and guidelines from the Institutional Animal Care and Use Committee of the National Health Research Institutes, Taipei, Taiwan. All experiments were supervised under the Institutional Animal Care and Use Committee, China Medical University, Taichung, Taiwan. MDA-MB-231 breast cancer cells (5×10^6 cells per mouse) were suspended in 0.1 ml of Matrigel solution (50% (v/v) Matrigel in PBS) and inoculated into the mammary fat pads of the mice. […] Compounds was administered P.O. once every day for 32 days. Tumor size and mouse body weight were measured once every 4 days, and tumor volume (mm3) was calculated using the equation: length×(width)^2×0.5. At the end of experiments, mice were sacrificed and tumor nodules were dissected and weighed.

MDA-MB-453 = assay: Cell viability, MDA-MB-453 breast cancer cells; type: cell-based; conditions: Homo sapiens; MDA-MB-453 (Her-2+), treated for 24 h
Method: (§1) Cell viability was evaluated by measuring the reduction in MTT to yield blue formazan. Cells were cultured in 96-well plates, allowed to attach overnight, and then treated with compounds. After treatment, MTT solution (1 mg/ml) was added to each well, and plates were incubated for another 4 h. Medium were removed, blue formazan was dissolved in DMSO, and the absorbance was read at 570 nm^20.

MDA-MB-468 = assay: Cell viability, MDA-MB-468 breast cancer cells; type: cell-based; conditions: Homo sapiens; MDA-MB-468 (Triple negative), treated for 24 h
Method: as §1

MDA-MB-157 = assay: Cell viability, MDA-MB-157 breast cancer cells; type: cell-based; conditions: Homo sapiens; MDA-MB-157 (Triple negative), treated for 24 h
Method: as §1

[1] = tested on: HCT-116 colon cancer cell; assay: MTT cell viability assay, HCT-116 colon cancer cell; type: cell-based; conditions: Homo sapiens
Method: as §1

[2] = tested on: Doxorubicin-resistant MDA-MB-231; assay: Cell viability, Doxorubicin-resistant MDA-MB-231; type: cell-based; conditions: Doxorubicin-resistant MDA-MB-231, treated for 24 h
Method: as §1

HS-578T = assay: Cell viability, HS-578T breast cancer cells; type: cell-based; conditions: Homo sapiens; HS-578T (Triple negative), treated for 24 h
Method: as §1

PC3 prostate cancer cell = assay: MTT cell viability assay, PC3 prostate cancer cell; type: cell-based
Method: as §1

BT-474 = assay: Cell viability, BT-474 breast cancer cells; type: cell-based; conditions: Homo sapiens; BT-474 (Her-2+), treated for 24 h
Method: as §1

SKBR-3 = assay: Cell viability, SKBR-3 breast cancer cells; type: cell-based; conditions: Homo sapiens, SK-BR-3; SKBR-3 (Her-2+), treated for 24 h
Method: as §1

[3] = tested on: MDA-MB-231 breast cancer cell; assay: MTT cell viability assay, MDA-MB-231 breast cancer cell; type: cell-based, human; conditions: Homo sapiens
Method: Cell viability was evaluated by measuring the reduction in MTT to yield blue formazan. Cells were cultured in 96-well plates, allowed to attach overnight, and then treated with compounds. After treatment, MTT solution (1 mg/ml) was added to each well, and plates were incubated for another 4 h.

T47D = assay: Cell viability, T47D breast cancer cells; type: cell-based; conditions: Homo sapiens; T47D (ER+/PR+), treated for 24 h
Method: as §1

MCF-7 = assay: Cell viability, MCF-7 breast cancer cells; type: cell-based; conditions: Homo sapiens, MCF7; MCF-7 (ER+/PR+), treated for 24 h
Method: as §1

COc1cc(/C=C/C(=O)/C=C(O)/C=C/c2ccc(O)c(OC)c2)ccc1O [Curcumin, (E,E)-1,7-bis (4-hydroxy-3-methoxyphenyl)-1,6-heptadiene-3,5-dione]
body weight, behavior change and blood chemistry (serology detection) (MDA-MB-231 Xenograft): no significant difference
IC50 (MDA-MB-453): 32.4 ± 1.41 µM
IC50 (MDA-MB-468): 42.9 ± 2.35 µM
IC50 (MDA-MB-157): 40.4 ± 3.26 µM
IC50 ([1]; HCT-116, treated 24 hours, read-out: IC50 24 hours): 78 ± 11.2 µM
IC50 ([1]; HCT-116, treated 48 hours, read-out: IC50 48 hours): 26.3 ± 1.38 µM
IC50 ([1]; HCT-116, treated 72 hours, read-out: IC50 72 hours): 13.8 ± 0.5 µM
IC50 [2]: 58.6 ± 4.03 µM
IC50 ([2]; Homo sapiens, MDA-MB-231, 24 h): 57.6 µM
IC50 (HS-578T): 55.5 ± 1.39 µM
IC50 (PC3 prostate cancer cell; PC-3, treated 24 hours, read-out: IC50 24 hours): 57.1 ± 10.1 µM
IC50 (PC3 prostate cancer cell; PC-3, treated 48 hours, read-out: IC50 48 hours): 30 ± 0.72 µM
IC50 (PC3 prostate cancer cell; PC-3, treated 72 hours, read-out: IC50 72 hours): 18.8 ± 1.31 µM
IC50 (BT-474): 30.1 ± 1.42 µM
IC50 (SKBR-3): 42.8 ± 1.47 µM
IC50 ([3]; MDA-MB-231, 24 h, read-out: IC50 24 hours): 38.8 ± 3.35 µM
IC50 ([3]; MDA-MB-231, 48 h, read-out: IC50 48 hours): 22.1 ± 2.97 µM
IC50 ([3]; MDA-MB-231, treated 72 hours, read-out: IC50 72 hours): 16.2 µM
IC50 (T47D): 47.9 ± 3.9 µM
IC50 (MCF-7): 42.9 ± 2.36 µM
